Results taken from patent publication US10364247B2, “Preparation and use of novel protein kinase inhibitors” (Ruijin Hospital Affiliated to Shanghai Jiao Tong University …, priority 2015, dated 2019).

Assays:
Format in all cases: cell-based, murine
BaF3-TEL-LYN = target: T1, BaF3-TEL-LYN (Homo sapiens, UniProt P07948); test: Antiproliferative activity, kinase-dependent Ba/F3 cells (MTT/MTS); conditions: 48 hours, cell viability, read-out: tel-LYN IC50
T1 construct: fused on or other part: P41212 (Transcription factor ETV6)
Method: (§1) Following up on the kinome data, the ability of compounds disclosed in the present invention to inhibit proliferation of cells that are dependent on selected protein kinases was tested. […] In addition, compounds were assayed to measure their capacity to inhibit TIE1, LYN, EML4-ALK, INSR and HCK kinases.
(§2) The murine cell line used is the BaF/3 cell line transformed with BCR/ABL cDNA (BaF/3-p210) or BCR/ABL-T315I mutant (Ba/F3-p210-T315I). These cells are maintained in RPMI/10% fetal calf serum (RPMI/FCS) supplemented with penicillin 50 μg/mL, streptomycin 50 μg/mL and L-glutamine […]. Untransformed BaF/3 cells (Wt-BaF/3) are similarly maintained with the addition of 15% of WEHI conditioned medium as a source of IL3.
(§3) Cells were seeded at a density of 20,000 cells/well into 96-well plates.
(§4) The background control wells to which media with no cells added and the vehicle control wells were included on each plate in triplicate. Cell viability was determined using MTT (Sigma, St. Louis, Mo., USA) and MTS (Promega, Madison, Wis., USA), according to the manufacturer's instructions. Results were analyzed using GraphPad Prism 5.0 (GraphPad Software, San Diego, Calif.) and IC50 values were calculated from cell viability dose-response curves and defined as the concentration of compound needed to reduce cell viability to 50% of a vehicle control (DMSO) (Table 3).
(§5) Cell proliferation assays of compounds of the invention against TIE1, LYN, EML4-ALK, INSR and Hck were conducted using identical methods as described above for BCR/ABL, except that BaF3-TEL-TIE1, BaF3-TEL-LYN, BaF3-EML4-ALK, BaF3-TEL-INSR, and BaF3-TEL-HCK are used instead of BaF3-BCR/ABL (Table 3 and 4).

BaF3-TEL-HCK = target: T2, BaF3-TEL-HCK (Homo sapiens, UniProt P08631); test: as above; conditions: 48 hours, cell viability, read-out: Tel-HCK IC50
T2 construct: fused on or other part: P41212 (Transcription factor ETV6)
Method: as §1, §2, §3, §4, §5

BaF3-EML4-ALK = target: T3, BaF3-EML4-ALK (Homo sapiens, UniProt Q9UM73); test: as above; conditions: 48 hours, cell viability, read-out: EML4-ALK IC50
T3 construct: fused on or other part: Q9HC35 (Echinoderm microtubule-associated protein-like 4)
Method: as §1, §2, §3, §4, §5

BaF3-TEL-TIE1 = target: T4, BaF3-TEL-TIE1 (Homo sapiens, UniProt P35590); test: as above; conditions: 48 hours, cell viability, read-out: tel-TIE1 IC50
T4 construct: fused on or other part: P41212 (Transcription factor ETV6)
Method: as §1, §2, §3, §4, §5

Wt-BaF3 = test: Parental Ba/F3 cell proliferation (CellTiter Glo); conditions: Mus musculus, parental BaF/3 cells, 48 hours
Method: as §2
(§6) The BaF/3 cell line transformed with oncogenic NRAS or KRAS (BaF/3-NRASD12 or BaF/3-KRASD12) and the parental BaF/3 cells were used to measure the abilities of compounds of the invention to suppress RAS transformation (Table 5). Cells were seeded at a density of 5000 cells/well into 96-well plates. […] The background control wells to which media with no cells added and the vehicle control wells were included on each plate in triplicate. Cell viability was determined using CellTiter Glo Assay (Promega) according to manufacture's instruction with a minor modification of diluting 1 part CellTiter Glo reagent to 4 parts phosphate buffered saline (PBS) before use. The luminescence value was read out by an Envision (PerkinElmer).

BaF3-BCR/ABL = target: T5, BaF3-BCR/ABL (Homo sapiens, UniProt P00519); test: Antiproliferative activity, kinase-dependent Ba/F3 cells (MTT/MTS); conditions: 48 hours, cell viability, read-out: BCR/ABL IC50
T5 construct: fused on or other part: P11274 (Breakpoint cluster region protein)
Method: as §1, §2, §3, §4

BaF3-NRASD12 = test: Oncogenic RAS dependent cell proliferation (CellTiter Glo); conditions: Mus musculus, BaF3-NRASD12 cells, 48 hours, read-out: NRas-BaF3 IC50
Method: as §6

BaF3-KRASD12 = test: as above; conditions: Mus musculus, BaF3-KRASD12 cells, 48 hours, read-out: KRas-BaF3 IC50
Method: as §6

BaF3-BCR/ABL-T315I = target: T6, BaF3-BCR/ABL-T315I (Homo sapiens, UniProt P00519, T315I, cells depend on it); test: Antiproliferative activity, kinase-dependent Ba/F3 cells (MTT/MTS); conditions: 48 hours, cell viability, read-out: BCR/ABL T315I IC50
T6 construct: fused on or other part: P11274 (Breakpoint cluster region protein)
Method: as §1, §2, §3, §4

BaF3-TEL-INSR = target: T7, BaF3-TEL-INSR (Homo sapiens, UniProt P06213); test: as above; conditions: 48 hours, cell viability, read-out: Tel-INSR IC50
T7 construct: fused on or other part: P41212 (Transcription factor ETV6)
Method: as §1, §2, §3, §4, §5

T4 sequence (P35590 whole entry, change not shown, the tested form may be a part): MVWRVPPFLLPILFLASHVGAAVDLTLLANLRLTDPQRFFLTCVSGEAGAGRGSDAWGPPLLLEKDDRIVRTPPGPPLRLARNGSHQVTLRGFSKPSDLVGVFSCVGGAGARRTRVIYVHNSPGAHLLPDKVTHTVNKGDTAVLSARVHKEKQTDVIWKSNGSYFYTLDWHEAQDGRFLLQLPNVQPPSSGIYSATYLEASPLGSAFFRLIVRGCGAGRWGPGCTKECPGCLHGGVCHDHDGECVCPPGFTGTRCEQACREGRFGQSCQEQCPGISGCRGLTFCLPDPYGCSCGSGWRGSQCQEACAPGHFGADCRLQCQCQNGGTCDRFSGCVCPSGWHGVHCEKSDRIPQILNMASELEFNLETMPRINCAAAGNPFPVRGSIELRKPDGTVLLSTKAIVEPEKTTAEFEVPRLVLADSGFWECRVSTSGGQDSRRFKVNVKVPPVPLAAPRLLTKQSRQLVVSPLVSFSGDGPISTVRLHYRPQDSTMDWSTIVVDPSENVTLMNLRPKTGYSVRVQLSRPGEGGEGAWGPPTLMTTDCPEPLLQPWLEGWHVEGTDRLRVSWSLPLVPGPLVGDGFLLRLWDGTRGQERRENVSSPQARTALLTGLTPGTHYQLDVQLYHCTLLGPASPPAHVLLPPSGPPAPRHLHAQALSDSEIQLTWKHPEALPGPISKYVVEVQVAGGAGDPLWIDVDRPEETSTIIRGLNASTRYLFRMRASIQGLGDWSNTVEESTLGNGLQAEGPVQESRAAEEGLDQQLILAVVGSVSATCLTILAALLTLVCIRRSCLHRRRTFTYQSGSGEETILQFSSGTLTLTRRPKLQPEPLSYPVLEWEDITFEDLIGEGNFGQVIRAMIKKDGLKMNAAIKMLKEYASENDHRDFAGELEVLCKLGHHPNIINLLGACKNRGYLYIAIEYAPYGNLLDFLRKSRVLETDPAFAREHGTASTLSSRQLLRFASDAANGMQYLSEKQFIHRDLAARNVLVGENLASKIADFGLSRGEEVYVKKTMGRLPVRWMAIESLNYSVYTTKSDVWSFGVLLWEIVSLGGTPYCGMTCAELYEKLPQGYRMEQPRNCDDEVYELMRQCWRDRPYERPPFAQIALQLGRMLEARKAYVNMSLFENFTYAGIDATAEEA
T2 sequence (P08631 whole entry, change not shown, the tested form may be a part): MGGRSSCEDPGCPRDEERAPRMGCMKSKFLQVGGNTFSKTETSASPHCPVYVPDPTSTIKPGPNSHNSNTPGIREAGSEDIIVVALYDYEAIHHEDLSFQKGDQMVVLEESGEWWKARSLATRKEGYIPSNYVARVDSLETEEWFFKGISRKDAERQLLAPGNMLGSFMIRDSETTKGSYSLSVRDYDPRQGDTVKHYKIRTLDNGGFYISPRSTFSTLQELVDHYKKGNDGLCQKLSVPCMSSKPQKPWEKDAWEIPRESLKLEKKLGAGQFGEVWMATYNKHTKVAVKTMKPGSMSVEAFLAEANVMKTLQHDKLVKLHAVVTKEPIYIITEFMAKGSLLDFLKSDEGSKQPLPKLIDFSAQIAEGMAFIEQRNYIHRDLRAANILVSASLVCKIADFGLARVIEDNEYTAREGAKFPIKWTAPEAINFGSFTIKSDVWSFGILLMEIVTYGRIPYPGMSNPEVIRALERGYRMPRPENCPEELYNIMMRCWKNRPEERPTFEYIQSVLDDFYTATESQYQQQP
T3 sequence (Q9UM73 whole entry, change not shown, the tested form may be a part): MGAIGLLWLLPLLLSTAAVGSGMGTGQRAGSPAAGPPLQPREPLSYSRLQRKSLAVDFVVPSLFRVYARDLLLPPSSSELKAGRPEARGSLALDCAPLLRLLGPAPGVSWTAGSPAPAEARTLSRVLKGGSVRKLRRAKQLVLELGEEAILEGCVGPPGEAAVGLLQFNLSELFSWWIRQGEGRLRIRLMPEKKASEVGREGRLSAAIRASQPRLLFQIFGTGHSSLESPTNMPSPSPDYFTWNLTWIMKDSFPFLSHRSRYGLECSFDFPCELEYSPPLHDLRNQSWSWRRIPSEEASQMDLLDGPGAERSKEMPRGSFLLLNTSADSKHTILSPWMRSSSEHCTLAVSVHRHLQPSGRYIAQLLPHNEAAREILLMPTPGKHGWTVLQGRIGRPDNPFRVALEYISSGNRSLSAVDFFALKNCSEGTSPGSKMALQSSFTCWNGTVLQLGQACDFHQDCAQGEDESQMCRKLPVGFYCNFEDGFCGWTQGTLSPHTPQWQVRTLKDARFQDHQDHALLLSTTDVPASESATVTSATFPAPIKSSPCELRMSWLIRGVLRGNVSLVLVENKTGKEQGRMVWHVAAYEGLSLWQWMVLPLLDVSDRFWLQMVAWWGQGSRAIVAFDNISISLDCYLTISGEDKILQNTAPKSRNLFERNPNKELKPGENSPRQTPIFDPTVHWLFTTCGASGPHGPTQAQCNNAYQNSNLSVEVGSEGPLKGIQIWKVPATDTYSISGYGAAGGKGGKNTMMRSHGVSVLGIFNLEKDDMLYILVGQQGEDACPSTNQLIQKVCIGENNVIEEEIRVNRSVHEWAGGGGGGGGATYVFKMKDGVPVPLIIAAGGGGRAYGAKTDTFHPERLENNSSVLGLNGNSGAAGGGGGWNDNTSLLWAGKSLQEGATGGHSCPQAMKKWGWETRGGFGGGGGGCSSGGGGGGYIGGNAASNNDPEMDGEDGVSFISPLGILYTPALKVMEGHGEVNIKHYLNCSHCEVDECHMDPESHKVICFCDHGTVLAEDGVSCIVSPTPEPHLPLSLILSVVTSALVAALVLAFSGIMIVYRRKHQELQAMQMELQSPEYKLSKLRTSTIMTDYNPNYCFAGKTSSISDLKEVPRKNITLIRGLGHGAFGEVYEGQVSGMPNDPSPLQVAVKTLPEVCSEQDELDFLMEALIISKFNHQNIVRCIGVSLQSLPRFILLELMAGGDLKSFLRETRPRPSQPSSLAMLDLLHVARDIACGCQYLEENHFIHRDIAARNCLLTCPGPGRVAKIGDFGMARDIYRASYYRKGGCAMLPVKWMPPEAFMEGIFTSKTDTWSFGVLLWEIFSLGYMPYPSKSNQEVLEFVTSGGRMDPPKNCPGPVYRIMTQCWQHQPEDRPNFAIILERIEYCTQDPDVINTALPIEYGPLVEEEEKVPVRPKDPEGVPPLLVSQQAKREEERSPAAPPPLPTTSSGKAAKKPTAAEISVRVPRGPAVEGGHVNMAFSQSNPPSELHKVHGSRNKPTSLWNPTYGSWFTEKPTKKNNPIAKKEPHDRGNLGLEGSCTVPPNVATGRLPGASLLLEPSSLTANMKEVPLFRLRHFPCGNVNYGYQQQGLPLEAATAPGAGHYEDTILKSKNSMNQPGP
T1 sequence (P07948 whole entry, change not shown, the tested form may be a part): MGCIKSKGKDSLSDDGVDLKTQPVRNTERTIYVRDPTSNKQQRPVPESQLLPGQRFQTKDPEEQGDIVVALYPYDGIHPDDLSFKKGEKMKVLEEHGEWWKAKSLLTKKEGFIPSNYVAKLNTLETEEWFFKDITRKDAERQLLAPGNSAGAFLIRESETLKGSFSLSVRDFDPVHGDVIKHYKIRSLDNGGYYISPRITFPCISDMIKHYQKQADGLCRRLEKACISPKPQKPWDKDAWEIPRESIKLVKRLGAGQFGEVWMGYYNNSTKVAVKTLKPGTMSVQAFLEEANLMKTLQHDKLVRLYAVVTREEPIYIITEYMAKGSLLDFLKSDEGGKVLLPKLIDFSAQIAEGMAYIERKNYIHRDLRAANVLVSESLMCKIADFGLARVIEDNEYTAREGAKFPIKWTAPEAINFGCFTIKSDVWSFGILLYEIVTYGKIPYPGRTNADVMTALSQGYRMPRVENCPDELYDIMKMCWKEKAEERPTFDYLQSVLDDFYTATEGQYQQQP

Structure (SMILES): Cc1ccc(Nc2ncc3c(n2)N(c2ccccc2)CN(c2cc(NC(=O)c4cccc(C(F)(F)F)c4)ccc2C)C3)cn1 [IB-4, N-(4-methyl-3-(7-((6-methylpyridin-3-yl)amino)-1-phenyl-1,4-dihydropyrimido[4,5-d]pyrimidin-3(2H)-yl)phenyl)-3-(trifluoromethyl)benzamide]
- GI50 (BaF3-TEL-LYN): 4.11 µM
- GI50 (BaF3-TEL-HCK): 4.61 µM
- GI50 (BaF3-EML4-ALK): > 10 µM
- GI50 (BaF3-TEL-TIE1): 3.68 µM
- IC50 (Wt-BaF3): 17.1 µM
- GI50 (BaF3-BCR/ABL): 0.669 µM
- IC50 (BaF3-NRASD12): 4.93 µM
- IC50 (BaF3-KRASD12): 5.36 µM

Structure (SMILES): Cc1ccc(NC(=O)c2cccc(C(F)(F)F)c2)cc1N1Cc2cnc(NC3CCN(C)CC3)nc2N(C)C1 [IA-1, N-(4-methyl-3-(1-methyl-7-((1-methylpiperidin-4-yl)amino)-1,4-dihydropyrimido[4,5-d]pyrimidin-3(2H)-yl)phenyl)-3-(trifluoromethyl)benzamide]
- GI50 (BaF3-TEL-LYN): ~2.79 µM
- GI50 (BaF3-EML4-ALK): 1.53 µM
- GI50 (BaF3-TEL-TIE1): 1.75 µM
- IC50 (Wt-BaF3): 8.83 µM
- GI50 (BaF3-BCR/ABL): 4.28 µM
- GI50 (BaF3-BCR/ABL-T315I): 4.15 µM
- IC50 (BaF3-NRASD12): 5.22 µM
- IC50 (BaF3-KRASD12): 10.1 µM

Structure (SMILES): Cc1ccc(NC(=O)c2cccc(C(F)(F)F)c2)cc1N1Cc2cnc(Nc3cnn(C)c3)nc2N(C)C1 [IA-10, N-(4-methyl-3-(1-methyl-7-((1-methyl-1H-pyrazol-4-yl)amino)-1,4-dihydropyrimido[4,5-d]pyrimidin-3(2H)-yl)phenyl)-3-(trifluoromethyl)benzamide]
- GI50 (BaF3-TEL-LYN): 1.43 µM
- GI50 (BaF3-TEL-HCK): 1.77 µM
- GI50 (BaF3-EML4-ALK): 4.64 µM
- GI50 (BaF3-TEL-TIE1): 2.32 µM
- IC50 (Wt-BaF3): 11.8 µM
- GI50 (BaF3-BCR/ABL): 0.000251 µM
- GI50 (BaF3-BCR/ABL-T315I): 2.76 µM
- IC50 (BaF3-NRASD12): 2.9 µM
- IC50 (BaF3-KRASD12): 4.6 µM

Structure (SMILES): Cc1ccc(NC(=O)c2cccc(C(F)(F)F)c2)cc1N1Cc2cnc(NCCN(C)C)nc2N(C)C1 [IA-2, N-(3-(7-((2-(dimethylamino)ethyl)amino)-1-methyl-1,4-dihydropyrimido[4,5-d]pyrimidin-3(2H)-yl)-4-methylphenyl)-3-(trifluoromethyl)benzamide]
- GI50 (BaF3-TEL-LYN): 1.32 µM
- GI50 (BaF3-TEL-HCK): 2.56 µM
- GI50 (BaF3-TEL-INSR): 1.33 µM
- GI50 (BaF3-EML4-ALK): ~2.78 µM
- GI50 (BaF3-TEL-TIE1): 1.59 µM
- IC50 (Wt-BaF3): 4.54 µM
- GI50 (BaF3-BCR/ABL): > 10 µM
- IC50 (BaF3-NRASD12): 3.38 µM
- IC50 (BaF3-KRASD12): 3.98 µM

Structure (SMILES): Cc1ccc(Nc2ncc3c(n2)N(C2CCCC2)CN(c2cc(NC(=O)c4cccc(C(F)(F)F)c4)ccc2C)C3)cn1 [IB-3, N-(3-(1-cyclopentyl-7-((6-methylpyridin-3-yl)amino)-1,4-dihydropyrimido[4,5-d]pyrimidin-3(2H)-yl)-4-methylphenyl)-3-(trifluoromethyl)benzamide]
- GI50 (BaF3-TEL-LYN): 3.3 µM
- GI50 (BaF3-TEL-HCK): 3.15 µM
- GI50 (BaF3-EML4-ALK): 5.88 µM
- GI50 (BaF3-TEL-TIE1): 3.82 µM
- IC50 (Wt-BaF3): 9.71 µM
- GI50 (BaF3-BCR/ABL): 0.303 µM
- GI50 (BaF3-BCR/ABL-T315I): 9.23 µM
- IC50 (BaF3-NRASD12): 5.97 µM
- IC50 (BaF3-KRASD12): 5.83 µM

Structure (SMILES): Cc1ccc(NC(=O)c2cccc(C(F)(F)F)c2)cc1N1Cc2cnc(N[C@H](C)CO)nc2N(C)C1 [IA-7, (R)—N-(3-(7-((1-hydroxypropan-2-yl)amino)-1-methyl-1,4-dihydropyrimido[4,5-d]pyrimidin-3(2H)-yl)-4-methylphenyl)-3-(trifluoromethyl)benzamide]
- GI50 (BaF3-TEL-LYN): 4.48 µM
- GI50 (BaF3-EML4-ALK): 7.47 µM
- GI50 (BaF3-TEL-TIE1): 4.22 µM
- IC50 (Wt-BaF3): 24.4 µM
- GI50 (BaF3-BCR/ABL): 0.665 µM
- GI50 (BaF3-BCR/ABL-T315I): > 10 µM
- IC50 (BaF3-NRASD12): 8.28 µM
- IC50 (BaF3-KRASD12): 8.1 µM
